# Earlier results in patent US20010050137A1, “Anti-microbial shoe linings, sock liners, and socks and process for manufacture of same” (priority 1995, published 2001).
# Where two headings read alike, the source gives them in different places.
# Legend:
# Chloroccum tetrasporum = conditions: DMSO cosolvent
# Staphylococcus aureus = conditions: ATCC 6538; approx. 10^6 organisms/ml; DMSO cosolvent
# [1] = commercial product, typical value
# [2] = system: Streptoverticillium reticulum; conditions: ATCC 25607; DMSO cosolvent
# Sctonema hofmaannii = conditions: DMSO cosolvent
# Aspergillus niger = conditions: ATCC 9542; approx. 10^5 colony-forming units/ml spores; DMSO cosolvent
# Candida Albicans = conditions: ATCC 11651; DMSO cosolvent
# most bacteria = conditions: in general
# Penicillium pinophilum = conditions: ATCC 9644; approx. 10^5 colony-forming units/ml spores; DMSO cosolvent
# Anacystis montana = conditions: DMSO cosolvent
# Chaetomium globosum = conditions: ATCC 6205; approx. 10^5 colony-forming units/ml spores; DMSO cosolvent
# Pityrosporum Ovale = conditions: DMSO cosolvent
# Fusarium sp. = conditions: approx. 10^5 colony-forming units/ml spores; DMSO cosolvent
# Synechocystis minima = conditions: DMSO cosolvent
# most algae = conditions: in general
# [3] = system: most fungi (molds and yeasts); conditions: in general
# Aureobasidium pullulans = conditions: ATCC 9348; approx. 10^5 colony-forming units/ml spores; DMSO cosolvent
# Klebsiella pheumoniae = conditions: ATCC 4352; approx. 10^6 organisms/ml; DMSO cosolvent
# Gliocladium virens = conditions: ATCC 9645; approx. 10^5 colony-forming units/ml spores; DMSO cosolvent
# Trentopholia odorata = conditions: DMSO cosolvent
# Escherichia coli = conditions: ATCC 9637; approx. 10^6 organisms/ml; DMSO cosolvent
# Pseudomonas aeruginosa = conditions: ATCC 9721; approx. 10^6 organisms/ml; DMSO cosolvent
# [4] = system: algae, mold, mildew and bacteria including E-Coli and Salmonella
# Streptococcus faecalis = conditions: ATCC 19433; approx. 10^6 organisms/ml; DMSO cosolvent
# [5] = for Solubility: 25° C.
smiles,measurement,setting,value
"c1cc[n+]2c(c1)[S][Zn-2]1([O]2)[O][n+]2ccccc2[S]1 [Zinc Omadine®, bis[1-hydroxy-2(1H)-pyridinethionato-0,S]-(T-4) zinc]",Minimum Inhibitory Concentrations,Chloroccum tetrasporum,8 Micrograms/ml (ppm)
same,Minimum Inhibitory Concentrations,Staphylococcus aureus,4 Micrograms/ml (ppm)
same,Heat Stability: time stable,[1]; at 100° C.,at least 120 hours
same,decomposition temperature,[1],240 °C
same,Minimum Inhibitory Concentrations,[2],4 Micrograms/ml (ppm)
same,Minimum Inhibitory Concentrations,Sctonema hofmaannii,0.5 Micrograms/ml (ppm)
same,Minimum Inhibitory Concentrations,Aspergillus niger,8 Micrograms/ml (ppm)
same,Minimum Inhibitory Concentrations,Candida Albicans,<2 Micrograms/ml (ppm)
same,MIC in vitro,most bacteria,less than 50 ppm
same,Minimum Inhibitory Concentrations,Penicillium pinophilum,<2 Micrograms/ml (ppm)
same,Minimum Inhibitory Concentrations,Anacystis montana,<0.06 Micrograms/ml (ppm)
same,Minimum Inhibitory Concentrations,Chaetomium globosum,<2 Micrograms/ml (ppm)
same,Minimum Inhibitory Concentrations,Pityrosporum Ovale,4 Micrograms/ml (ppm)
same,Minimum Inhibitory Concentrations,Fusarium sp.,32 Micrograms/ml (ppm)
same,Minimum Inhibitory Concentrations,Synechocystis minima,<0.06 Micrograms/ml (ppm)
same,MIC in vitro,most algae,less than 1 ppm
same,MIC in vitro,[3],less than 5 ppm
same,Minimum Inhibitory Concentrations,Aureobasidium pullulans,<2 Micrograms/ml (ppm)
same,Minimum Inhibitory Concentrations,Klebsiella pheumoniae,8 Micrograms/ml (ppm)
same,Minimum Inhibitory Concentrations,Gliocladium virens,64 Micrograms/ml (ppm)
same,Minimum Inhibitory Concentrations,Trentopholia odorata,<0.06 Micrograms/ml (ppm)
same,Minimum Inhibitory Concentrations,Escherichia coli,8 Micrograms/ml (ppm)
same,Minimum Inhibitory Concentrations,Pseudomonas aeruginosa,512 Micrograms/ml (ppm)
same,inhibiting the growth of microorganisms,[4],capable of inhibiting the growth
same,Minimum Inhibitory Concentrations,Streptococcus faecalis,16 Micrograms/ml (ppm)
same,Solubility,[5]; Castor oil,<0.0001 w/w %
same,Solubility,[5]; Chloroform,0.3 w/w %
same,Solubility,[5]; Diethyleneglycol monoethyl ether,0.01 w/w %
same,Solubility,[5]; Dimethylsulfoxide,4 w/w %
same,Solubility,"[5]; Ethanol, 40A",0.01 w/w %
same,Solubility,[5]; Ethyleneglycol monomethyl ether,0.09 w/w %
same,Solubility,[5]; Isopropanol,0.008 w/w %
same,Solubility,[5]; Isopropyl myristate,<0.0001 w/w %
same,Solubility,[5]; Isopropyl palmitate,<0.0001 w/w %
same,Solubility,"[5]; Mineral oil, light",<0.0001 w/w %
same,Solubility,[5]; Olive oil,<0.0003 w/w %
same,Solubility,[5]; Polyethylene glycol 400,0.2 w/w %
same,Solubility,[5]; Propylene glycol,0.02 w/w %
same,Solubility,"[5]; Water, pH 7, technical grade material, average",0.0008 w/w %
same,Solubility in water,"[5]; water, 95 percent powder form",insoluble in water
